In publication PMC10046037, “GABRG2 Variants Associated with Febrile Seizures” (Biomolecules, 2023):

Molecular target: T1, α1β3γ2 GABAA receptor, γ2F464S variant (Homo sapiens, UniProt P14867+P18507+P28472, F464S)
T1 construct: expressed in transfected cells; host or cells: HEK293T
T1 sequence (P14867 28-456): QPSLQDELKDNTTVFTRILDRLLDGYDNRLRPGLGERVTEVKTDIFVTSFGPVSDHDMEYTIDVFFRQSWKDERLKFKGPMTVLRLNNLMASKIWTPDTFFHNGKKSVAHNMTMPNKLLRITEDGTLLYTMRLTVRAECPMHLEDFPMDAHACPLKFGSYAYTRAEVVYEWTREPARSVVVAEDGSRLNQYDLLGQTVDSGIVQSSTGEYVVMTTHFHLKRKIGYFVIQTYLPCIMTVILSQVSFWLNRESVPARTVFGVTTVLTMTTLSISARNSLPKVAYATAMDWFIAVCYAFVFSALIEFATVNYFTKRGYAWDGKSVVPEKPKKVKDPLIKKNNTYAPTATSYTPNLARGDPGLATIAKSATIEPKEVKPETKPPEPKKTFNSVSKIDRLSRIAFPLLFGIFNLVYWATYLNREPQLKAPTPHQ
T1 sequence (P28472 26-473 isoform P28472-2): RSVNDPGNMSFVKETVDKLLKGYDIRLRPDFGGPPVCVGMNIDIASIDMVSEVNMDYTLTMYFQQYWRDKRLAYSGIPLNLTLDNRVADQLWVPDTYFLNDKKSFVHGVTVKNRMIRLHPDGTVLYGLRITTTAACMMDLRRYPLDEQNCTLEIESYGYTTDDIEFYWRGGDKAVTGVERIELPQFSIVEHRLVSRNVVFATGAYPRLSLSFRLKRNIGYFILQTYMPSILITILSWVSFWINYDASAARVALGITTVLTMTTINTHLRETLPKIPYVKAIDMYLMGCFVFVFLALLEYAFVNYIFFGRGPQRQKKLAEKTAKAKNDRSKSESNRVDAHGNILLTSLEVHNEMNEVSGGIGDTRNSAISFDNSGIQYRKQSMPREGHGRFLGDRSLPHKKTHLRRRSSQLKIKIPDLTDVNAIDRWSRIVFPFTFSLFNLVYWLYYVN
T1 sequence (P18507 40-475 F464S): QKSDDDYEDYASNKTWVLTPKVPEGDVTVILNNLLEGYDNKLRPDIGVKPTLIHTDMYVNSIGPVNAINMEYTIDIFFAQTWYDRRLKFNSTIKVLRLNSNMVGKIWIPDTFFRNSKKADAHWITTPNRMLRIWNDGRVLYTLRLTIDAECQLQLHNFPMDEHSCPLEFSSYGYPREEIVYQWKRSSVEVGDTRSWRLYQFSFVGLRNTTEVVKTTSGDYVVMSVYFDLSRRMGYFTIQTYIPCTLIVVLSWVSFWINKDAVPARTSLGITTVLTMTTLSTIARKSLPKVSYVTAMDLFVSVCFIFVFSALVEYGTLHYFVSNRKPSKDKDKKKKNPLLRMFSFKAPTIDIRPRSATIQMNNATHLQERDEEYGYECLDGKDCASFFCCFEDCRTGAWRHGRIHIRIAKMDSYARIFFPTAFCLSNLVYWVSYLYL
Experiment: Automated patch clamp of GABA-elicited currents (SyncroPatch 384PE), γ2F464S
Format: cell-based
Conditions: mean
Method: The coding sequences of human α1 (GABRA1, NM_000806), β3 (GABRB3, NM_021912), and γ2 (GABRG2, NM_198904.2) GABAAR subunits were subcloned into the pcDNA3.1 expression vectors (Invitrogen, Waltham, MA, USA).
HEK293T cells (ATCC, CRL-11268) were cultured at 37 °C in a humidified 5% CO2 incubator and maintained in Dulbecco’s modified Eagle’s medium (Invitrogen) supplemented with 10% fetal bovine serum (Life Technologies, Carlsbad, CA, USA), and 100 IU/mL of penicillin/streptomycin (Life Technologies). For the expression experiments, 4 × 10^5 cells were transfected using polyethylenimine (PEI) reagent (40 kD, Polysciences, Warrington, PA, USA) at a DNA: to transfection reagent ratio of 1:2.5 and harvested 36 h after transfection. To express WT and variant α1β3γ2 receptors, a total of 3 µg of α1, β3, and γ2 (WT or mutant) subunit cDNAs were transfected at a ratio of 1:1:1 into 60 mm culture dishes. For the mock-transfected condition, an empty pcDNA3.1 vector was added for a final cDNA transfection amount of 3 μg. For the electrophysiology experiments, 2.5 × 10^5 cells were plated in 100 mm culture dishes and transfected after 24 h with 3 μg of cDNA of each α1, β3, γ2 (wild-type or mutant) subunit, using X-tremeGENE HP DNA transfection Reagent (Roche Diagnostics, Basel, Switzerland), following the manufacturer’s protocol. Recordings were obtained forty-eight hours after transfection.
Whole-cell patch clamp recordings were conducted according to the manufacturer’s standard procedure for the SyncroPatch 384 [31]. Whole-cell voltage-clamp recordings were performed at room temperature on HEK293T cells 48 h after transfection with GABAAR subunits, using the SyncroPatch 384PE (Nanion Technologies, Munich, Germany). Cells, at a concentration of 400,000 cells/mL, were harvested in suspension in external solution containing 140 mM of NaCl, 2 mM of CaCl2, 4 mM of KCl, 1 mM of MgCl2, 5 mM of glucose, and 10 mM of HEPES (pH 7.4 with NaOH, 298 mOsm). The cells were loaded in a multi-hole (4 holes per well) 384-well Nanion patch clamp (NPC) chip with a thick borosilicate glass bottom and an average resistance pore size of […]. Built-in electrophysiological protocols were used, and the data were digitized using PatchControl 384 (Nanion Technologies) application. Using PatchControl 384, electrophysiological parameters, such as seal resistance, capacitance, and series resistance, were determined for each well after the application of a test pulse, and subsequently monitored over time. […] The currents were normalized to the maximal response of each well, and the concentration–response curves were calculated from single-point additions. The EC50 values for each variant or wild-type receptor were calculated across multiple wells for each experimental condition.

SMILES: NCCCC(=O)O [GABA, γ-aminobutyric acid]
- Deactivation (1 mM GABA for 5 ms, HEK293T, -80 mV): 332.6 ms
- IMAX (maximal GABA-evoked peak current) (1 mM GABA for 5 ms, HEK293T): 0.96 nA
- IMAX variant/IMAX WT (1 mM GABA): 47.93%
- Rise Time (10–90% rise time, 1 mM GABA for 5 ms, HEK293T): 29.22 ms
